# Laboratory results published in PubChem BioAssay (NCI).
#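 Briefly, cells in 96-well plates were exposed to five compound concentrations for 48 h, and endpoints were estimated by linear interpolation. TGI: concentration producing complete growth inhibition.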
# Tests used:
# Test in all cases: DTP human tumour cell line panel, 48 h
# [1] = system: NCI-H460 lung
# [2] = system: RPMI-8226 leukemia
# [3] = system: OVCAR-8 ovarian
# [4] = system: 786-0 renal
# [5] = system: SNB-78 CNS
# [6] = system: NCI-H522 lung
# [7] = system: DMS 114 small cell lung
# [8] = system: MALME-3M melanoma
# [9] = system: SF-268 CNS
# [10] = system: SK-MEL-28 melanoma
# [11] = system: ACHN renal
# [12] = system: A498 renal
# [13] = system: NCI-H23 lung
# [14] = system: SF-539 CNS
# [15] = system: HCT-15 colon
# [16] = system: COLO 205 colon
# [17] = system: SK-MEL-5 melanoma
# [18] = system: TK-10 renal
# [19] = system: DMS 273 small cell lung
# [20] = system: SK-OV-3 ovarian
# [21] = system: MOLT-4 leukemia
# [22] = system: HT29 colon
# [23] = system: HCT-116 colon
# [24] = system: NCI-H226 lung
# [25] = system: U251 CNS
# [26] = system: HCC-2998 colon
# [27] = system: SNB-75 CNS
# [28] = system: IGROV1 ovarian
# [29] = system: SF-295 CNS
# [30] = system: CAKI-1 renal
# [31] = system: OVCAR-5 ovarian
# [32] = system: M19-MEL melanoma
# [33] = system: EKVX NSCLC
# [34] = system: A549 NSCLC
# [35] = system: SW-620 colon
# [36] = system: UACC-257 melanoma
# [37] = system: SNB-19 CNS
# [38] = system: OVCAR-3 ovarian
# [39] = system: UO-31 renal
# [40] = system: M14 melanoma
# [41] = system: K-562 leukemia
# [42] = system: UACC-62 melanoma
# [43] = system: SN12C renal
# [44] = system: XF 498 CNS
# [45] = system: OVCAR-4 ovarian
# [46] = system: CCRF-CEM leukemia
# [47] = system: HOP-18 NSCLC
# [48] = system: RXF-631 renal
# [49] = system: KM20L2 colon
# [50] = system: DLD-1 colon
# [51] = system: LXFL 529 NSCLC
# [52] = system: SK-MEL-2 melanoma
# [53] = system: HOP-92 NSCLC
# [54] = system: KM12 colon
# [55] = system: HL-60(TB) leukemia
# [56] = system: HOP-62 NSCLC
# [57] = system: RXF 393 renal
# [58] = system: SR leukemia
# [59] = system: LOX IMVI melanoma
structure (smiles),measurement,setting,value
O=c1c2ccccc2nc(-c2ccccc2)n1NC1OC(CO)C(O)C(O)C1O (stereo unspecified),TGI,[1],> 100 µM
same,TGI,[2],> 100 µM
same,TGI,[3],> 100 µM
same,TGI,[4],> 100 µM
same,TGI,[5],> 100 µM
same,TGI,[6],> 100 µM
same,TGI,[7],> 100 µM
same,TGI,[8],> 100 µM
same,TGI,[9],> 100 µM
same,TGI,[10],> 100 µM
same,TGI,[11],> 100 µM
same,TGI,[12],> 100 µM
same,TGI,[13],> 100 µM
same,TGI,[14],> 100 µM
same,TGI,[15],> 100 µM
same,TGI,[16],> 100 µM
same,TGI,[17],> 100 µM
same,TGI,[18],> 100 µM
same,TGI,[19],> 100 µM
same,TGI,[20],> 100 µM
same,TGI,[21],> 100 µM
same,TGI,[22],> 100 µM
same,TGI,[23],> 100 µM
same,TGI,[24],> 100 µM
same,TGI,[25],> 100 µM
same,TGI,[26],> 100 µM
same,TGI,[27],> 100 µM
same,TGI,[28],> 100 µM
same,TGI,[29],> 100 µM
same,TGI,[30],> 100 µM
same,TGI,[31],> 100 µM
same,TGI,[32],> 100 µM
same,TGI,[33],> 100 µM
same,TGI,[34],> 100 µM
same,TGI,[35],> 100 µM
same,TGI,[36],> 100 µM
same,TGI,[37],> 100 µM
same,TGI,[38],> 100 µM
same,TGI,[39],> 100 µM
same,TGI,[40],> 100 µM
same,TGI,[41],> 100 µM
same,TGI,[42],> 100 µM
same,TGI,[43],> 100 µM
same,TGI,[44],> 100 µM
same,TGI,[45],> 100 µM
same,TGI,[46],> 100 µM
same,TGI,[47],> 100 µM
same,TGI,[48],> 100 µM
same,TGI,[49],> 100 µM
same,TGI,[50],> 100 µM
same,TGI,[51],> 100 µM
same,TGI,[52],> 100 µM
same,TGI,[53],> 100 µM
same,TGI,[54],> 100 µM
same,TGI,[55],> 100 µM
same,TGI,[56],> 100 µM
COc1ccc(C2N(NC(=O)c3ccncc3)C(=O)CS2(=O)=O)cc1F (stereo unspecified),TGI,[1],> 100 µM
same,TGI,[2],> 100 µM
same,TGI,[5],> 100 µM
same,TGI,[6],> 100 µM
same,TGI,[7],> 100 µM
same,TGI,[8],> 100 µM
same,TGI,[57],> 100 µM
same,TGI,[9],> 100 µM
same,TGI,[10],> 100 µM
same,TGI,[11],> 100 µM
same,TGI,[12],> 100 µM
same,TGI,[13],> 100 µM
same,TGI,[15],> 100 µM
same,TGI,[16],> 100 µM
same,TGI,[17],> 100 µM
same,TGI,[18],> 100 µM
same,TGI,[19],> 100 µM
same,TGI,[20],> 100 µM
same,TGI,[21],> 100 µM
same,TGI,[22],> 100 µM
same,TGI,[23],> 100 µM
same,TGI,[24],> 100 µM
same,TGI,[25],> 100 µM
same,TGI,[26],> 100 µM
same,TGI,[27],> 100 µM
same,TGI,[29],> 100 µM
same,TGI,[30],> 100 µM
same,TGI,[31],> 100 µM
same,TGI,[58],> 100 µM
same,TGI,[34],> 100 µM
same,TGI,[35],> 100 µM
same,TGI,[36],> 100 µM
same,TGI,[37],> 100 µM
same,TGI,[59],> 100 µM
same,TGI,[40],> 100 µM
same,TGI,[43],> 100 µM
same,TGI,[44],> 100 µM
same,TGI,[45],> 100 µM
same,TGI,[46],> 100 µM
same,TGI,[47],> 100 µM
same,TGI,[48],> 100 µM
same,TGI,[50],> 100 µM
same,TGI,[51],> 100 µM
same,TGI,[52],> 100 µM
same,TGI,[53],> 100 µM
same,TGI,[54],> 100 µM
same,TGI,[55],> 100 µM
same,TGI,[56],> 100 µM
CCOC(=O)Cc1cc(OC)c(OC)cc1/C(Cl)=C(\C=O)c1ccc(OC)c(OC)c1,TGI,[1],17.9 µM
same,TGI,[2],43.1 µM
same,TGI,[3],80.8 µM
same,TGI,[5],81.1 µM
same,TGI,[7],48.8 µM
same,TGI,[8],74.3 µM
same,TGI,[57],> 100 µM
same,TGI,[10],65.7 µM
same,TGI,[11],55.6 µM
same,TGI,[13],51.2 µM
same,TGI,[15],45.2 µM
same,TGI,[16],50.6 µM
same,TGI,[17],35.1 µM
same,TGI,[18],90.8 µM
same,TGI,[19],44.3 µM
same,TGI,[20],86 µM
same,TGI,[21],42.1 µM
same,TGI,[22],29.2 µM
same,TGI,[23],29 µM
same,TGI,[25],33.1 µM
same,TGI,[27],> 100 µM
same,TGI,[28],78.9 µM
same,TGI,[29],29 µM
same,TGI,[30],75.5 µM
same,TGI,[32],55.6 µM
same,TGI,[33],71.7 µM
same,TGI,[34],57.1 µM
same,TGI,[35],57 µM
same,TGI,[36],32.9 µM
same,TGI,[37],> 100 µM
same,TGI,[38],28.1 µM
same,TGI,[59],36.4 µM
same,TGI,[39],85.3 µM
same,TGI,[40],32.1 µM
same,TGI,[41],56.5 µM
same,TGI,[42],37.9 µM
same,TGI,[43],33.5 µM
same,TGI,[44],46.2 µM
same,TGI,[45],56.3 µM
same,TGI,[47],75.4 µM
same,TGI,[48],49 µM
same,TGI,[49],35.7 µM
same,TGI,[50],48.8 µM
same,TGI,[52],62.9 µM
same,TGI,[53],10.3 µM
same,TGI,[55],40.9 µM
same,TGI,[56],46.9 µM
COC(=O)CCC(NC(=S)N/N=C/c1ccco1)C(=O)OC (stereo unspecified),TGI,[1],> 100 µM
same,TGI,[3],> 100 µM
same,TGI,[4],> 100 µM
same,TGI,[5],> 100 µM
same,TGI,[6],> 100 µM
same,TGI,[7],> 100 µM
same,TGI,[8],> 100 µM
same,TGI,[57],> 100 µM
same,TGI,[9],> 100 µM
same,TGI,[10],> 100 µM
same,TGI,[11],> 100 µM
same,TGI,[12],> 100 µM
same,TGI,[13],> 100 µM
same,TGI,[14],> 100 µM
same,TGI,[15],> 100 µM
same,TGI,[16],> 100 µM
same,TGI,[17],> 100 µM
same,TGI,[18],> 100 µM
same,TGI,[19],> 100 µM
same,TGI,[20],> 100 µM
same,TGI,[22],> 100 µM
same,TGI,[23],> 100 µM
same,TGI,[24],> 100 µM
same,TGI,[25],> 100 µM
same,TGI,[26],> 100 µM
same,TGI,[27],> 100 µM
same,TGI,[28],> 100 µM
same,TGI,[29],> 100 µM
same,TGI,[31],> 100 µM
same,TGI,[32],> 100 µM
same,TGI,[58],> 100 µM
same,TGI,[33],> 100 µM
same,TGI,[34],> 100 µM
same,TGI,[35],> 100 µM
same,TGI,[36],> 100 µM
same,TGI,[37],> 100 µM
same,TGI,[38],> 100 µM
same,TGI,[59],> 100 µM
same,TGI,[39],> 100 µM
same,TGI,[40],> 100 µM
same,TGI,[41],> 100 µM
same,TGI,[42],> 100 µM
same,TGI,[43],> 100 µM
same,TGI,[44],> 100 µM
same,TGI,[45],> 100 µM
same,TGI,[46],> 100 µM
same,TGI,[47],> 100 µM
same,TGI,[48],> 100 µM
same,TGI,[49],> 100 µM
same,TGI,[50],> 100 µM
same,TGI,[51],> 100 µM
same,TGI,[52],> 100 µM
same,TGI,[54],> 100 µM
same,TGI,[55],> 100 µM
same,TGI,[56],> 100 µM
